The values below come from PubChem BioAssay AID344 (DTP/NCI, 2004).

The test system of the assay is mice, LPC-1 plasma cell tumor ip, median survival T/C. Kind of assay: NCI In Vivo Anticancer Drug Screen. Data for tumor model Lieberman Plasma Cell No. 1 (LPC-1) (intraperitoneal) in unknown mice. Conditions: endpoint: median survival time, higher = longer survival. The method, then: The antitumor activity of compounds was measured in mice bearing transplantable tumors. Survival or tumor size were measured and the results are expressed as the measurement made in the treated group (T) divided by the measurement made in the vehicle treated control group (C). The tumor model used in this assay is Lieberman Plasma Cell No. 1 (LPC-1) (intraperitoneal) in unknown mice

The structures appear in SMILES notation. Toxic doses and inconclusive results are not listed.

Regarding `CN(C)c1ccc(/C=C2\C=Cc3ccccc32)cc1`, the T/C runs as follows: (dose: 6.3 mg/kg/injection, schedule: Q01DX028 (sc), vehicle: carboxymethylcellulose (CMC)) 102 % of control; (dose: 12.5 mg/kg/injection, schedule: Q01DX028 (sc), vehicle: carboxymethylcellulose (CMC)) 102 % of control; (dose: 25.0 mg/kg/injection, schedule: Q01DX028 (sc), vehicle: carboxymethylcellulose (CMC)) 102 % of control; (dose: 50.0 mg/kg/injection, schedule: Q01DX028 (sc), vehicle: carboxymethylcellulose (CMC)) 97 % of control; (dose: 100.0 mg/kg/injection, schedule: Q01DX028 (sc), vehicle: carboxymethylcellulose (CMC)) 94 % of control.
With `CNNCc1ccc(C(=O)NC(C)C)cc1`, the T/C is, setting by setting: (dose: 26.0 mg/kg/injection, schedule: Q01DX028 (sc), vehicle: saline) 96 % of control; (dose: 65.0 mg/kg/injection, schedule: Q01DX028 (sc), vehicle: saline) 166 % of control; (dose: 90.0 mg/kg/injection, schedule: Q01DX028 (sc), vehicle: saline) 115 % of control; (dose: 108.0 mg/kg/injection, schedule: Q01DX028 (sc), vehicle: saline) 180 % of control; (dose: 135.0 mg/kg/injection, schedule: Q01DX028 (sc), vehicle: saline) 100 % of control; (dose: 300.0 mg/kg/injection, schedule: Q01DX028 (sc), vehicle: saline) 114 % of control. Further, the T/C (dose: 500.0 mg/kg/injection, schedule: Q01DX028 (sc), vehicle: saline) was 95 % of control.
`O=c1[nH]cc(F)c(=O)[nH]1`: the T/C reads like this: (dose: 2.0 mg/kg/injection, schedule: Q01DX028 (sc), vehicle: saline) 122 % of control; (dose: 3.0 mg/kg/injection, schedule: Q01DX024 (sc), vehicle: saline) 109 % of control; (dose: 4.0 mg/kg/injection, schedule: Q01DX028 (sc), vehicle: saline) 155 % of control; (dose: 5.8 mg/kg/injection, schedule: Q01DX001 (sc), vehicle: saline) 105 % of control; (dose: 5.8 mg/kg/injection, schedule: Q01DX002 (sc), vehicle: saline) 100 % of control; (dose: 5.8 mg/kg/injection, schedule: Q01DX003 (sc), vehicle: saline) 112 % of control. In addition, the T/C by setting is: (dose: 5.8 mg/kg/injection, schedule: Q01DX004 (sc), vehicle: saline) 110 % of control; (dose: 6.0 mg/kg/injection, schedule: Q01DX024 (sc), vehicle: saline) 121 % of control; (dose: 6.0 mg/kg/injection, schedule: Q## X008 (sc), vehicle: saline) 104 % of control; (dose: 6.0 mg/kg/injection, schedule: Q## X012 (sc), vehicle: saline) 114 % of control; (dose: 8.0 mg/kg/injection, schedule: Q01DX028 (sc), vehicle: saline) 251 % of control; (dose: 9.6 mg/kg/injection, schedule: Q01DX001 (sc), vehicle: saline) 110 % of control. Moreover, the T/C is, setting by setting: (dose: 9.6 mg/kg/injection, schedule: Q01DX002 (sc), vehicle: saline) 112 % of control; (dose: 9.6 mg/kg/injection, schedule: Q01DX003 (sc), vehicle: saline) 120 % of control; (dose: 9.6 mg/kg/injection, schedule: Q01DX004 (sc), vehicle: saline) 112 % of control; (dose: 12.0 mg/kg/injection, schedule: Q01DX024 (sc), vehicle: saline) 214 % of control; (dose: 12.0 mg/kg/injection, schedule: Q## X008 (sc), vehicle: saline) 117 % of control; (dose: 12.0 mg/kg/injection, schedule: Q## X012 (sc), vehicle: saline) 117 % of control. The T/C is, setting by setting: (dose: 16.0 mg/kg/injection, schedule: Q01DX001 (sc), vehicle: saline) 115 % of control; (dose: 16.0 mg/kg/injection, schedule: Q01DX002 (sc), vehicle: saline) 117 % of control; (dose: 16.0 mg/kg/injection, schedule: Q01DX028 (sc), vehicle: saline) 155 % of control; (dose: 24.0 mg/kg/injection, schedule: Q## X012 (sc), vehicle: saline) 156 % of control; (dose: 26.7 mg/kg/injection, schedule: Q01DX001 (sc), vehicle: saline) 120 % of control; (dose: 26.7 mg/kg/injection, schedule: Q01DX002 (sc), vehicle: saline) 122 % of control. For the same compound, the T/C (dose: 26.7 mg/kg/injection, schedule: Q01DX004 (sc), vehicle: saline) is 157 % of control; the T/C (dose: 32.0 mg/kg/injection, schedule: Q01DX028 (sc), vehicle: saline) is 93 % of control; the T/C (dose: 44.5 mg/kg/injection, schedule: Q01DX003 (sc), vehicle: saline) is 107 % of control; the T/C (dose: 44.5 mg/kg/injection, schedule: Q01DX004 (sc), vehicle: saline) is 120 % of control; the T/C (dose: 48.0 mg/kg/injection, schedule: Q01DX024 (sc), vehicle: saline) was 102 % of control; the T/C (dose: 96.0 mg/kg/injection, schedule: Q## X008 (sc), vehicle: saline) is 95 % of control. Also, the T/C (dose: 96.0 mg/kg/injection, schedule: Q## X012 (sc), vehicle: saline) is 90 % of control.
Turning to `CC(=O)[C@H]1CC[C@H]2[C@@H]3C[C@H](C)C4=CC(=O)CC[C@]4(C)[C@H]3C(=O)C[C@]12C`, the T/C by setting is: (dose: 108.0 mg/kg/injection, schedule: Q01DX028 (sc), vehicle: carboxymethylcellulose (CMC)) 102 % of control; (dose: 180.0 mg/kg/injection, schedule: Q01DX028 (sc), vehicle: carboxymethylcellulose (CMC)) 100 % of control; (dose: 300.0 mg/kg/injection, schedule: Q01DX028 (sc), vehicle: carboxymethylcellulose (CMC)) 97 % of control; (dose: 500.0 mg/kg/injection, schedule: Q01DX028 (sc), vehicle: carboxymethylcellulose (CMC)) 97 % of control.
As for `NC(CSCc1ccc(N(CCCl)CCCl)cc1)C(=O)O` (stereo not given), the T/C by setting is: (dose: 3.75 mg/kg/injection, schedule: Q01DX028 (sc), vehicle: saline) 100 % of control; (dose: 7.5 mg/kg/injection, schedule: Q01DX028 (sc), vehicle: saline) 111 % of control; (dose: 15.0 mg/kg/injection, schedule: Q01DX028 (sc), vehicle: saline) 102 % of control; (dose: 30.0 mg/kg/injection, schedule: Q01DX028 (sc), vehicle: saline) 122 % of control.
Take `O=c1ccc2cc(O)c(O)cc2o1`: the T/C is 119 % of control (dose: 31.0 mg/kg/injection, schedule: Q01DX028 (sc), vehicle: steriod suspending solution) and 115 % of control (dose: 62.0 mg/kg/injection, schedule: Q01DX028 (sc), vehicle: steriod suspending solution).
`Cc1c2c(c(C)c3c1OC(C)(C)CC3)OC(C)(C)CC2`: the T/C is 104 % of control (dose: 50.0 mg/kg/injection, schedule: Q01DX009 (sc), vehicle: saline); 97 % of control (dose: 100.0 mg/kg/injection, schedule: Q01DX009 (sc), vehicle: saline); 95 % of control (dose: 200.0 mg/kg/injection, schedule: Q01DX009 (sc), vehicle: saline); 90 % of control (dose: 400.0 mg/kg/injection, schedule: Q01DX009 (sc), vehicle: saline).
With `NC(=O)c1ccc(N)nc1`, the T/C (dose: 0.16 mg/kg/injection, schedule: Q01DX028 (sc), vehicle: water) is 100 % of control; the T/C (dose: 0.32 mg/kg/injection, schedule: Q01DX028 (sc), vehicle: water) was 97 % of control; the T/C (dose: 0.65 mg/kg/injection, schedule: Q01DX028 (sc), vehicle: water) is 95 % of control; the T/C (dose: 1.25 mg/kg/injection, schedule: Q01DX028 (sc), vehicle: water) was 97 % of control; the T/C (dose: 2.5 mg/kg/injection, schedule: Q01DX028 (sc), vehicle: water) was 100 % of control; the T/C (dose: 5.0 mg/kg/injection, schedule: Q01DX028 (sc), vehicle: water) is 107 % of control.
Consider `O=c1ccc2cc(OC3OC(CO)C(O)C(O)C3O)c(O)cc2o1` (stereo not given), for which the T/C was 100 % of control (dose: 400.0 mg/kg/injection, schedule: Q01DX028 (sc), vehicle: carboxymethylcellulose (CMC)); 100 % of control (dose: 600.0 mg/kg/injection, schedule: Q01DX028 (sc), vehicle: carboxymethylcellulose (CMC)); 97 % of control (dose: 900.0 mg/kg/injection, schedule: Q01DX028 (sc), vehicle: carboxymethylcellulose (CMC)).
Consider `O=c1[nH]c(=O)n(C2CC(O)C(CO)O2)cc1C(F)(F)F` (stereo not given), for which the T/C is, setting by setting: (dose: 50.0 mg/kg/injection, schedule: Q01DX028 (sc), vehicle: water) 102 % of control; (dose: 100.0 mg/kg/injection, schedule: Q01DX028 (sc), vehicle: water) 100 % of control; (dose: 200.0 mg/kg/injection, schedule: Q01DX028 (sc), vehicle: water) 100 % of control; (dose: 400.0 mg/kg/injection, schedule: Q01DX028 (sc), vehicle: water) 97 % of control.
